Measurements published in patent publication US11542254B2, “Methods and composition of 4-substituted benzoylpiperazine-1-substituted carbonyls as beta-catenin/B-cell lymphoma 9 inhibitors” (University of Utah Research Foundation, priority 2016, dated 2023).
Structures can show the parent of a compound that is named as a salt.

Molecular target: β-catenin/BCL9 PPI (Homo sapiens (Human), UniProt P35222)
Experiment: AlphaScreen competitive inhibition assay, wild-type β-catenin/BCL9 PPI
Assay type: binding
Conditions: for Ki / AlphaScreen Ki relative to compound 2 (higher / worse): wild-type β-catenin/BCL9 PPI; for Ki: AlphaScreen competitive inhibition, mean ± SD (n=3); for AlphaScreen Ki relative to compound 2 (higher / worse): compared with compound 2
Protocol: Cells were cultured in LB medium with 30 μg/mL kanamycin until the OD600 was approximately 0.8, and then protein expression was induced with 400 μM of IPTG at 20° C. overnight. Cells were lysed by sonication. […] Native non-denaturing gel electrophoresis was performed to confirm the homogeneity of the purified proteins. Thermal-shift assay was performed on an iCycler iQ Real Time Detection System (Bio-Rad) to monitor protein stability and detect protein aggregation. Protein unfolding was evaluated through measuring the fluorescence changes of fluorescent dye Sypro Orange when interacting with wild-type or mutant β-catenin proteins. A temperature increment of 1°/min was applied. […] All spectra were recorded at room temperature, and the baseline control containing all of the substances except protein. Sample were prepared at a concentration around 1-5 μM in a buffer of 10 mM potassium phosphate and 100 mM potassium fluoride at pH 7.0 to ensure that the transmission of light through the sample was not restricted. […] Proteins were aliquoted and stored at −80° C.
25. Alphascreen Competitive Inhibition Assays Using Wild-Type and Mutant β-Catenin Proteins

β-catenin/BCL9 PPI, sequence (P35222 138-686): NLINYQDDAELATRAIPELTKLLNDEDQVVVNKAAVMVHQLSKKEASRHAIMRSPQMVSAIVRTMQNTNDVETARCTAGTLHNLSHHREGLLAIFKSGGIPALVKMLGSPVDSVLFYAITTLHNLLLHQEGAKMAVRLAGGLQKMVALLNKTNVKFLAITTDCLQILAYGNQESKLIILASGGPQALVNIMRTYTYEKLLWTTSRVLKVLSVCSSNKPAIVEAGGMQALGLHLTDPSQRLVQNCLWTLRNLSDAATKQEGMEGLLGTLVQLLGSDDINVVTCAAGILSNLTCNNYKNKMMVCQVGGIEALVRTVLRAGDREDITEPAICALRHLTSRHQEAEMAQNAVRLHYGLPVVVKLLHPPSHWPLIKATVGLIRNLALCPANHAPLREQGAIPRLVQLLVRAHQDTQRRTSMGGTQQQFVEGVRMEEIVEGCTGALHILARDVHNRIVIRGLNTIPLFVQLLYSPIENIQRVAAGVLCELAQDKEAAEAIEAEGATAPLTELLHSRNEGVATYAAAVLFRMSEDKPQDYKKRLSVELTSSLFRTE

Row | SMILES | Ki [µM] | AlphaScreen Ki relative to compound 2 (higher / worse) | inhibition of β-catenin/BCL9 PPI at the highest concentration tested (500 μM, AlphaScreen)
1 | NCCOc1ccc(C(N)=O)cc1-c1ccc(F)cc1 [Compound 1, 2-((5-carbamoyl-4′-fluoro-[1,1′-biphenyl]-2-yl)oxy)ethan-1-aminium chloride] | 130 ± 6.9 | – | –
2 | NCCc1cc(F)cc(C(=O)N2CCN(C(=O)c3ccc(O[C@H]4CCNC4)c(-c4ccc(F)cc4)c3)CC2)c1 [Compound 5, (S)-(4-(3-(2-Aminoethyl)-5-fluorobenzoyl)piperazin-1-yl)(4′-fluoro-6-(pyrrolidin-3-yloxy)-[1,1′-biphenyl]-3-yl)methanone hydrochloride] | 67 ± 13 | – | –
3 | O=C(c1cc(F)cc(O[C@@H]2CCNC2)c1)N1CCN(C(=O)c2ccc(O[C@H]3CCNC3)c(-c3ccc(F)cc3)c2)CC1 [Compound 7, (4-(3-Fluoro-5-(((R)-pyrrolidin-3-yl)oxy)benzoyl)piperazin-1-yl) (4′-fluoro-6-(((S)-pyrrolidin-3-yl)oxy)-[1,1′-biphenyl]-3-yl) methanone hydrochloride] | 35 ± 9.6 | – | –
4 | O=C(c1cc(F)cc(C2CCNCC2)c1)N1CCN(C(=O)c2ccc(O[C@H]3CCNC3)c(-c3ccc(F)cc3)c2)CC1 [Compound 8, (S)-(4-(3-Fluoro-5-(piperidin-4-yl)benzoyl)piperazin-1-yl)(4′-fluoro-6-(pyrrolidin-3-yloxy)-[1,1′-biphenyl]-3-yl)methanone hydrochloride] | 20 ± 2.3 | – | –
5 | Cl.Cl.O=C(c1cc(F)cc(N2CCNCC2)c1)N1CCN(C(=O)c2ccc(O[C@H]3CCNC3)c(-c3ccc(F)c(F)c3)c2)CC1 [Compound 9, (S)-(4-(3′,4′-Difluoro-6-(pyrrolidin-3-yloxy)-[1,1′-biphenyl]-3-carbonyl)piperazin-1-yl)(3-fluoro-5-(piperazin-1-yl)phenyl) methanone hydrochloride] | 57 ± 33 | approximately 3 fold | –
6 | O=C(c1cc(F)cc(N2CCNCC2)c1)N1CCN(C(=O)c2ccc(O[C@H]3CCNC3)c(C3CCCC3)c2)CC1 [Compound 11, (S)-(4-(3-Cyclopentyl-4-(pyrrolidin-3-yloxy)benzoyl)piperazin-1-yl)(3-fluoro-5-(piperazin-1-yl)phenyl)methanone hydrochloride] | 37 ± 8 | – | –
7 | O=C(c1cc(F)cc(N2CCNCC2)c1)N1CCN(C(=O)c2ccc(O[C@H]3CCNC3)c(C3CCC(C(F)(F)F)CC3)c2)CC1 (stereo partly drawn) [Compound 13, (S)-(4-(3-Fluoro-5-(piperazin-1-yl)benzoyl)piperazin-1-yl)(4-(pyrrolidin-3-yloxy)-3-(4-(trifluoromethyl)cyclohexyl)phenyl)methanone hydrochloride] | 170 ± 7.5 | – | –
8 | CC1(C)CCC(c2cc(C(=O)N3CCN(C(=O)c4cc(F)cc(N5CCNCC5)c4)CC3)ccc2O[C@H]2CCNC2)CC1 [Compound 15, (S)-(4-(3-(4,4-Dimethylcyclohexyl)-4-(pyrrolidin-3-yloxy)benzoyl)piperazin-1-yl) (3-fluoro-5-(piperazin-1-yl)phenyl) methanone hydrochloride] | 45 ± 6.7 | – | –
9 | O=C(c1cc(F)cc(N2CCNCC2)c1)N1CCN(C(=O)c2ccc(O[C@H]3CCNC3)c(C3CCC(F)(F)CC3)c2)CC1 [Compound 16, (S)-(4-(3-(4,4-Difluorocyclohexyl)-4-(pyrrolidin-3-yloxy)benzoyl)piperazin-1-yl)(3-fluoro-5-(piperazin-1-yl)phenyl)methanone hydrochloride] | 53 ± 22 | – | –
10 | O=C(c1cc(Cl)cc(N2CCNCC2)c1)N1CCN(C(=O)c2ccc(O[C@H]3CCNC3)c(C3CCCCC3)c2)CC1 [Compound 18, (S)-(4-(3-Chloro-5-(piperazin-l-yl)benzoyl)piperazin-1-yl)(3-cyclohexyl-4-(pyrrolidin-3-yloxy)phenyl)methanone hydrochloride] | 76 ± 9.9 | – | –
11 | O=C(c1cc(N2CCNCC2)cc(C(F)(F)F)c1)N1CCN(C(=O)c2ccc(O[C@H]3CCNC3)c(C3CCCCC3)c2)CC1 [Compound 20, (S)-(4-(3-Cyclohexyl-4-(pyrrolidin-3-yloxy)benzoyl)piperazin-1-yl) (3-(piperazin-1-yl)-5-(trifluoromethyl)phenyl) methanone hydrochloride] | 69 ± 8.7 | – | –
12 | CC[C@H]1CN(C(=O)c2cc(F)cc(N3CCNCC3)c2)CCN1C(=O)c1ccc(O[C@H]2CCNC2)c(-c2ccc(F)cc2)c1 [Compound 63, 4-(3-((S)-3-Ethyl-4-(4′-fluoro-6-(((S)-pyrrolidin-1-ium-3-yl)oxy)-[1,1′-biphenyl]-3-carbonyl)piperazine-1-carbonyl)-5-fluorophenyl)piperazin-1-ium chloride] | 10 ± 10 | – | –
13 | CC(C)C[C@H]1CN(C(=O)c2cc(F)cc(N3CCNCC3)c2)CCN1C(=O)c1ccc(O[C@H]2CCNC2)c(-c2ccc(F)cc2)c1 [Compound 68, 4-(3-Fluoro-5-((5)-4-(4′-fluoro-6-(((S)-pyrrolidin-1-ium-3-yl)oxy)-[1,1′-biphenyl]-3-carbonyl)-3-isobutylpiperazine-1-carbonyl)phenyl)piperazin-1-ium chloride] | 22 | – | –
14 | O=C(c1cc(F)cc(N2CCNCC2=O)c1)N1CCN(C(=O)c2ccc(O[C@H]3CCNC3)c(C3CCCCC3)c2)CC1 [Compound 75, (S)-1-(3-(4-(3-Cyclohexyl-4-(pyrrolidin-3-yloxy)benzoyl)piperazine-1-carbonyl)-5-fluorophenyl)piperazin-2-one hydrochloride] | 39 ± 7 | – | –
15 | O=C(c1cc(F)cc(N2CCNCC2=O)c1)N1CCN(C(=O)c2ccc(O[C@H]3CCNC3)c(C3CCC(C(F)(F)F)CC3)c2)CC1 (stereo partly drawn) [Compound 76, (S)-1-(3-Fluoro-5-(4-(4-(pyrrolidin-3-yloxy)-3-(4-(trifluoromethyl)cyclohexyl)benzoyl)piperazine-1-carbonyl)phenyl)piperazin-2-one hydrochloride] | 14 ± 3.6 | – | –

Other lines, results leading:

Row | Ki [µM] | AlphaScreen Ki relative to compound 2 (higher / worse) | inhibition of β-catenin/BCL9 PPI at the highest concentration tested (500 μM, AlphaScreen) | SMILES
16 | 82 ± 12 | 4 fold | – | Cl.Cl.O=C(c1cc(F)cc(N2CCNCC2)c1)N1CCN(C(=O)c2cnc(O[C@H]3CCNC3)c(-c3ccc(F)cc3)c2)CC1 [Compound 3, (S)-(4-(3-Fluoro-5-(piperazin-1-yl)benzoyl)piperazin-1-yl)(5-(4-fluorophenyl)-6-(pyrrolidin-3-yloxy)pyridin-3-yl)methanone hydrochloride]
17 | > 500 | – | no obvious inhibition | Cl.Cl.NCCc1cc(F)cc(C(=O)N2CCN(C(=O)c3cnc(O[C@H]4CCNC4)c(-c4ccc(F)cc4)c3)CC2)c1 [Compound 4, (S)-(4-(3-(2-Aminoethyl)-5-fluorobenzoyl)piperazin-1-yl)(5-(4-fluorophenyl)-6-(pyrrolidin-3-yloxy)pyridin-3-yl)methanone hydrochloride]
18 | 48 ± 11 | – | – | O=C(c1cc(F)cc(O[C@H]2CCNC2)c1)N1CCN(C(=O)c2ccc(O[C@H]3CCNC3)c(-c3ccc(F)cc3)c2)CC1 [Compound 6, (4-(3-Fluoro-5-(((S)-pyrrolidin-3-yl)oxy)benzoyl)piperazin-1-yl) (4′-fluoro-6-(((S)-pyrrolidin-3-yl)oxy)-[1,1′-biphenyl]-3-yl) methanone hydrochloride]
19 | 490 ± 150 | – | – | Cc1cc(C(=O)N2CCN(C(=O)c3cc(F)cc(N4CCNCC4)c3)CC2)ccc1O[C@H]1CCNC1 [Compound 17, (S)-(4-(3-Fluoro-5-(piperazin-1-yl)benzoyl)piperazin-1-yl)(3-methyl-4-(pyrrolidin-3-yloxy)phenyl) methanone hydrochloride]
20 | 25 ± 1.7 | – | – | Cc1cc(C(=O)N2CCN(C(=O)c3ccc(O[C@H]4CCNC4)c(C4CCCCC4)c3)CC2)cc(N2CCNCC2)c1 [Compound 19, (S)-(4-(3-Cyclohexyl-4-(pyrrolidin-3-yloxy)benzoyl)piperazin-1-yl) (3-methyl-5-(piperazin-1-yl)phenyl)methanone hydrochloride]
21 | 55 ± 2.7 | – | – | O=C(c1cc(Br)cc(N2CCNCC2)c1)N1CCN(C(=O)c2ccc(O[C@H]3CCNC3)c(C3CCCCC3)c2)CC1 [Compound 21, (S)-(4-(3-Bromo-5-(piperazin-1-yl)benzoyl)piperazin-1-yl)(3-cyclohexyl-4-(pyrrolidin-3-yloxy)phenyl)methanone hydrochloride]
22 | 110 ± 50 | – | – | C[C@H]1CN(C(=O)c2cc(F)cc(N3CCNCC3)c2)CCN1C(=O)c1ccc(O[C@H]2CCNC2)c(-c2ccc(F)cc2)c1 [Compound 62, 4-(3-Fluoro-5-((S)-4-(4′-fluoro-6-(((S)-pyrrolidin-1-ium-3-yl)oxy)-[1,1′-biphenyl]-3-carbonyl)-3-methylpiperazine-1-carbonyl)phenyl)piperazin-1-ium chloride]
23 | 45 | – | – | CC(C)[C@H]1CN(C(=O)c2cc(F)cc(N3CCNCC3)c2)CCN1C(=O)c1ccc(O[C@H]2CCNC2)c(-c2ccc(F)cc2)c1 [Compound 64, 4-(3-Fluoro-5-((5)-4-(4′-fluoro-6-(((S)-pyrrolidin-1-ium-3-yl)oxy)-[1,1′-biphenyl]-3-carbonyl)-3-isopropylpiperazine-1-carbonyl)phenyl)piperazin-1-ium chloride]
